Experiments:
Assay type in all cases: cell-based
[1] = test system: normal human subcutaneous preadipocytes differentiated into adipocytes; test: Cytotoxicity of steviol to adipocytes (WST-8 viable cell count); conditions: for Relative viable cell count (%): 10 days, Control=100%
Experimental: 5×10^5 normal human subcutaneous preadipocytes (Cat. No. PT-5020, Lonza Group AG) were precultured for 6 days in a T75 flask using a growth medium (PBM-2 medium supplemented with 10% FBS, 2 mM L-glutamine, 50 μg/mL gentamycin, and 37 ng/mL amphotericin-B, Cat. No. PT-8002, Lonza Group AG) in a CO2 incubator (37° C., 5% CO2; the same holds true for the description below). The cells were detached using 0.25% trypsin-EDTA, seeded at 10,000 cells/100 μL/well in a 96-well plate using the growth medium, and cultured overnight in a CO2 incubator. On the next day, the medium was replaced with 100 μL of a differentiation medium (PBM-2 medium supplemented with 10% FBS, 2 mM L-glutamine, 50 μg/mL gentamycin, 37 ng/mL amphotericin-B, insulin, dexamethasone, indomethacin, and 3-isobutyl-1-methylxanthine (IBMX), Cat. No. PT-8002, Lonza Group AG: the same holds true for the description below) supplemented with varying concentrations of steviol (0.001, 0.01, 0.1, 1, 10 or 100 μg/mL, dissolved in 0.1% DMSO (final concentration)). The cells were cultured for 10 days in a CO2 incubator to induce their differentiation into adipocytes. On the fourth and seventh days after the differentiation induction, the medium was replaced with a fresh medium (100 μL) having the same composition as above. A vehicle control composed of a differentiation medium supplemented with 0.1% DMSO (final concentration) was used as a negative control. Viable cell count measurement was performed by the WST-8 method. Specifically, the medium of each well after culture was replaced with a differentiation medium (100 μL) supplemented with a 1/10 amount of viable cell count measurement reagent SF, and the cells were incubated in a CO2 incubator. 30 minutes later and 90 minutes later, absorbance (450 nm, reference wavelength: 630 nm) was measured using a plate reader (VARIOSKAN FLASH, Thermo Fisher Scientific Inc.), and absorbance difference per 60 minutes was regarded as a relative viable cell count (Control=100%).

[2] = test system: adipocytes differentiated from normal human subcutaneous preadipocytes; test: Lipolysis test in adipocytes (free glycerol in culture supernatant); conditions: for Relative lipolysis level (%): 24 hours, DMSO=100%
Experimental: Normal human subcutaneous preadipocytes were precultured using the growth medium in the same manner as in Example 1. The cells were detached using 0.25% trypsin-EDTA, seeded at 10,000 cells/100 μL/well to a 96-well plate using the growth medium, and cultured overnight in a CO2 incubator. On the next day, the medium was replaced with the differentiation medium (100 μL), and the cells were cultured for 10 days in a CO2 incubator to induce their differentiation into adipocytes. On the fourth and seventh days after the differentiation induction, the medium was replaced with a fresh differentiation medium (100 μL). Next, the medium was replaced with a differentiation medium supplemented with varying concentrations of steviol (10, 30 or 100 μg/mL, dissolved in 0.1% DMSO (final concentration)), and the cells were cultured for 24 hours in a CO2 incubator. Then, a free glycerol level in a culture supernatant was measured using Adipolysis Assay Kit (Cat. No. 10009381, Cayman Chemical Co.) according to the manufacturer's protocol. For the measurement, absorbance (540 nm) was measured using a plate reader (VARIOSKAN FLASH, Thermo Fisher Scientific Inc.), and a relative free glycerol concentration was calculated. A differentiation medium supplemented with 10 μM isoproterenol (ISP) was used as a positive control, and a vehicle control (DMSO) composed of a differentiation medium supplemented with 0.1% DMSO (final concentration) and a no-addition control composed of only the differentiation medium were used as negative controls. Significant difference among the test groups to be compared (no-addition group vs positive control group, vehicle control group vs steviol addition group) was tested by the Student's t test. The two-tailed test was conducted, and P<0.05 was regarded as having significant difference.

HepG2 cells = test: TG accumulation test in hepatocytes (Adipogenesis Assay Kit, oleic acid); conditions: 0.2 mM oleic acid, 24 hours, DMSO=100%
Experimental: HepG2 cells were precultured using the growth medium in the same manner as in Example 5. The cells were detached using 0.25% trypsin-EDTA, seeded at 30,000 cells/100 μL/well to a 96-well plate using the growth medium, and cultured overnight in a CO2 incubator. On the next day, the medium was replaced with 100 μL of a test medium (DMEM (high glucose) supplemented with 0.2 mM oleic acid (Cat. No. 03008, Sigma-Aldrich), 10% FBS and 1% penicillin-streptomycin) supplemented with varying concentrations of steviol (12.5, 25, 50, 100 or 200 μg/mL, dissolved in 0.1% DMSO (final concentration)). The cells were cultured for 24 hours in a CO2 incubator. A test medium supplemented with 2 mM metformin (Cat. No. M2009, Tokyo Chemical Industry Co., Ltd.) was used as a positive control (Metformin), and a vehicle control composed of a test medium supplemented with 0.1% DMSO (final concentration) was used as a negative control (DMSO). Cells cultured in a test medium containing no oleic acid was used as an untreated control (Untreated). The cells thus cultured were subjected to oil red staining in the same manner as in Example 3, followed by photographing and calculation of a relative fat accumulation level. An intracellular triglyceride (TG) level in cells separately cultured under the same conditions as in the cells employed in the oil red staining was quantified using Adipogenesis Assay Kit (BioVision Inc.) according to the manufacturer's protocol. Absorbance (570 nm) was measured using a plate reader (VARIOSKAN FLASH, Thermo Fisher Scientific Inc.), and a relative TG level was calculated. Significant difference of untreated group vs fat accumulation induction group (negative control group) was tested (two-tailed) by the Student's t test as to the relative fat accumulation level and the relative TG level, and P<0.05 was regarded as having significant difference. Also, significant difference of negative control group vs steviol addition group/positive control group was tested (two-tailed) by the Dunnett test, and P<0.05 was regarded as having significant difference. The results of the fat accumulation test are shown in Table 6 and FIG. 6, and the results of the TG accumulation test are shown in Table 7 and FIG. 7.

C=C1C[C@@]23CC[C@H]4[C@@](C)(CCC[C@@]4(C)C(=O)O)[C@@H]2CC[C@]1(O)C3 [Steviol, steviol]
cytotoxicity to adipocytes (in words) ([1]; 100 μg/mL steviol): no particular cytotoxicity to be noted was found
Relative viable cell count (%) ([1]; steviol 0.01 μg/mL): 101.8%
Relative viable cell count (%) ([1]; steviol 0.1 μg/mL): 101.7%
Relative viable cell count (%) ([1]; steviol 1 μg/mL): 95.0%
Relative viable cell count (%) ([1]; steviol 10 μg/mL): 103.6%
Relative viable cell count (%) ([1]; steviol 100 μg/mL): 93.1%
lipolysis in adipocytes (in words) ([2]; 10, 30 or 100 μg/mL): promoted lipolysis in adipocytes in a concentration-dependent manner
Relative lipolysis level (%) ([2]; steviol 10 μg/mL): 99.5%
Relative lipolysis level (%) ([2]; steviol 30 μg/mL): 115.5%
Relative lipolysis level (%) ([2]; steviol 100 μg/mL): 123.4%
Relative TG level (%) (HepG2 cells; steviol 12.5 μg/mL): 98.8%
Relative TG level (%) (HepG2 cells; steviol 25 μg/mL): 90.0%
Relative TG level (%) (HepG2 cells; steviol 50 μg/mL): 93.7%
Relative TG level (%) (HepG2 cells; steviol 100 μg/mL): 89.4%
Relative TG level (%) (HepG2 cells; steviol 200 μg/mL): 81.4%
